Reference: PubChem BioAssay (NCI)
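48-hour exposure; five concentrations; linearly interpolated endpoints. GI50 = concentration required for 50% inhibition of growth. TGI marks complete inhibition of growth.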

Assays:
Experiment in all cases: NCI-60 cell line screen, 48 h
[1] = tested on: 786-0 renal
[2] = tested on: A498 renal
[3] = tested on: A549 NSCLC
[4] = tested on: ACHN renal
[5] = tested on: BT-549 breast
[6] = tested on: CAKI-1 renal
[7] = tested on: CCRF-CEM leukemia
[8] = tested on: COLO 205 colon
[9] = tested on: DU-145 prostate
[10] = tested on: EKVX NSCLC
[11] = tested on: HCC-2998 colon
[12] = tested on: HCT-116 colon
[13] = tested on: HCT-15 colon
[14] = tested on: HL-60(TB) leukemia
[15] = tested on: HOP-62 NSCLC
[16] = tested on: HOP-92 NSCLC
[17] = tested on: HS 578T breast
[18] = tested on: HT29 colon
[19] = tested on: IGROV1 ovarian
[20] = tested on: K-562 leukemia
[21] = tested on: KM12 colon
[22] = tested on: LOX IMVI melanoma
[23] = tested on: M14 melanoma
[24] = tested on: MALME-3M melanoma
[25] = tested on: MCF7 breast
[26] = tested on: MDA-MB-231 breast
[27] = tested on: MDA-MB-435
[28] = tested on: MOLT-4 leukemia
[29] = tested on: NCI-H226 lung
[30] = tested on: NCI-H23 lung
[31] = tested on: NCI-H460 lung
[32] = tested on: NCI-H522 lung
[33] = tested on: NCI/ADR-RES ovarian
[34] = tested on: OVCAR-3 ovarian
[35] = tested on: OVCAR-4 ovarian
[36] = tested on: OVCAR-5 ovarian
[37] = tested on: OVCAR-8 ovarian
[38] = tested on: PC-3 prostate
[39] = tested on: RPMI-8226 leukemia
[40] = tested on: RXF 393 renal
[41] = tested on: SF-268 CNS
[42] = tested on: SF-295 CNS
[43] = tested on: SF-539 CNS
[44] = tested on: SK-MEL-2 melanoma
[45] = tested on: SK-MEL-28 melanoma
[46] = tested on: SK-MEL-5 melanoma
[47] = tested on: SK-OV-3 ovarian
[48] = tested on: SN12C renal
[49] = tested on: SNB-19 CNS
[50] = tested on: SNB-75 CNS
[51] = tested on: SR leukemia
[52] = tested on: SW-620 colon
[53] = tested on: T-47D breast
[54] = tested on: TK-10 renal
[55] = tested on: U251 CNS
[56] = tested on: UACC-257 melanoma
[57] = tested on: UACC-62 melanoma
[58] = tested on: UO-31 renal

Compound `CCCCCCn1c(-c2ccc(C(=O)O/N=C(\N)c3ccc4c(c3)OCO4)cc2)nc(-c2ccccc2)c1-c1ccccc1` has a GI50 [1] of 1.02 µM, a TGI [1] of 2.56 µM and a GI50 [2] of 1.01 µM. It also gave a TGI [2] of 3.86 µM, a GI50 [3] of 1.41 µM and a TGI [3] of 3.68 µM. For the same compound, the GI50 [4] was 0.387 µM, the TGI [4] was 1.46 µM and the GI50 [5] was 2.02 µM. For the same compound, the TGI [5] was 5.41 µM, the GI50 [6] was 1.39 µM and the TGI [6] was 2.86 µM. For the same compound, the GI50 [7] was 1.29 µM, the TGI [7] was 4.25 µM and the GI50 [8] was 2.15 µM. For the same compound, the TGI [8] was 5.37 µM, the GI50 [9] was 1.33 µM and the TGI [9] was 2.66 µM. It also gave a GI50 [10] of 1.76 µM, a TGI [10] of 3.96 µM and a GI50 [11] of 2.96 µM. The TGI [11] was 10.4 µM, the GI50 [12] was 1.59 µM and the TGI [12] was 3.34 µM. It also gave a GI50 [13] of 1.61 µM, a TGI [13] of 3.34 µM and a GI50 [14] of 1.42 µM. The TGI [14] was 3.49 µM, the GI50 [15] was 2.11 µM and the TGI [15] was 4.71 µM. The GI50 [16] was 1.48 µM, the TGI [16] was 3.3 µM and the GI50 [17] was 1.64 µM. For the same compound, the TGI [17] was 3.95 µM, the GI50 [18] was 3.64 µM and the TGI [18] was 39.1 µM. The GI50 [19] was 0.463 µM, the TGI [19] was 1.93 µM and the GI50 [20] was 1.92 µM. The TGI [20] was 5.06 µM, the GI50 [21] was 3.9 µM and the TGI [21] was > 100 µM. It also gave a GI50 [22] of 0.173 µM, a TGI [22] of 0.329 µM and a GI50 [23] of 3.75 µM. The TGI [23] was 22.1 µM, the GI50 [24] was 1.83 µM and the TGI [24] was 4.06 µM. It also gave a GI50 [25] of 1.58 µM, a TGI [25] of 3.5 µM and a GI50 [26] of 2.41 µM. The TGI [26] was 6.72 µM, the GI50 [27] was 1.77 µM and the TGI [27] was 3.35 µM. It also gave a GI50 [28] of 1.74 µM, a TGI [28] of 4.55 µM and a GI50 [29] of 3.47 µM. It also gave a TGI [29] of 15.9 µM, a GI50 [30] of 1.48 µM and a TGI [30] of 3.05 µM. It also gave a GI50 [31] of 2.08 µM, a TGI [31] of 4.57 µM and a GI50 [32] of 1.81 µM. For the same compound, the TGI [32] was 3.92 µM, the GI50 [33] was 1.68 µM and the TGI [33] was 3.65 µM. It also gave a GI50 [34] of 2.48 µM, a TGI [34] of 7.87 µM and a GI50 [35] of 2.21 µM. For the same compound, the TGI [35] was 7 µM, the GI50 [36] was 2.9 µM and the TGI [36] was 13.8 µM. For the same compound, the GI50 [37] was 2.46 µM, the TGI [37] was 7.09 µM and the GI50 [38] was 2.62 µM. For the same compound, the TGI [38] was 11.3 µM, the GI50 [39] was 1.94 µM and the TGI [39] was 5.25 µM. It also gave a GI50 [40] of 1.77 µM, a TGI [40] of 3.88 µM and a GI50 [41] of 2.11 µM. It also gave a TGI [41] of 4.64 µM, a GI50 [42] of 1.69 µM and a TGI [42] of 3.35 µM. For the same compound, the GI50 [43] was 1.72 µM, the TGI [43] was 3.2 µM and the GI50 [44] was 4.19 µM. For the same compound, the TGI [44] was 21.7 µM, the GI50 [45] was 4.47 µM and the TGI [45] was 22.7 µM. The GI50 [46] was 2.22 µM, the TGI [46] was 4.93 µM and the GI50 [47] was 10.4 µM. It also gave a TGI [47] of 64.3 µM, a GI50 [48] of 1.87 µM and a TGI [48] of 4.09 µM. It also gave a GI50 [49] of 3.24 µM, a TGI [49] of 12.2 µM and a GI50 [50] of 1.7 µM. The TGI [50] was 4.9 µM, the GI50 [51] was 0.28 µM and the TGI [51] was 1.43 µM. It also gave a GI50 [52] of 2.8 µM, a TGI [52] of 12 µM and a GI50 [53] of 2.03 µM. The TGI [53] was 5.11 µM, the GI50 [54] was 1.94 µM and the TGI [54] was 3.61 µM. It also gave a GI50 [55] of 1.74 µM, a TGI [55] of 3.81 µM and a GI50 [56] of 10.5 µM. For the same compound, the TGI [56] was 43.2 µM, the GI50 [57] was 2.87 µM and the TGI [57] was 10.5 µM. The GI50 [58] was 1.28 µM and the TGI [58] was 2.59 µM.
